Results: US20130131139A1, “ROR1 AS A GENE TARGET IN ACUTE LYMPHOBLASTIC LEUKEMIA” (Oregon Health & Science University, priority 2011, published 2013)

Test system: leukemia cells from eight other ALL patients
Experiment: Dasatinib cell viability (MTS assay), primary cells of other ALL subsets
Format: cell-based
Details: Homo sapiens, 72 h; eight other ALL samples; highest tested concentration 1000 nM; 3 days

Cc1nc(Nc2ncc(C(=O)Nc3c(C)cccc3Cl)s2)cc(N2CCN(CCO)CC2)n1 [dasatinib]
IC50: > 1000 nM
